Measured values: patent EP4729061A1, “USE OF AKT INHIBITOR IN PREPARATION OF DRUG FOR PREVENTING OR TREATING BREAST CANCER” (Nanjing Chia Tai Tianqing Pharmaceutical Co., Ltd., priority 2023, dated 2024)
Where two headings read alike, the source gives them in different places.

Assay: Clinical trial of the compound of Formula (A) tablets as monotherapy: pharmacokinetics
Assay type: in vivo, patients with advanced malignant solid tumors
Settings: 400mg Monotherapy; for half-life / AUC(0-t) / Cmax / Vd/F: 400 mg
Text: All contents of the trial protocol with registration number CTR20211999 on the China Drug Clinical Trial Registration and Information Disclosure Platform and results thereof are incorporated herein by reference.
Study Objectives: To evaluate the safety and tolerability of the compound of Formula (A) in patients with advanced malignant solid tumors (including breast cancer and ovarian cancer) who have failed standard treatment, and to explore the maximum tolerated dose (MTD) of the compound of Formula (A), and determine the recommended phase II dose (RP2D). To evaluate the pharmacokinetic (PK) characteristics of the compound of Formula (A) following a single dose and continuous administration for 21 days in patients with advanced solid tumors. To assess the preliminary efficacy of the compound of Formula (A) in the treatment of advanced solid tumors.
Trial Design: The study was an open-label, single-arm, non-randomized clinical trial focusing on safety, efficacy, and pharmacokinetics. The first part was the dose-finding phase, and the second part was the dose-expansion phase.
A starting dose of 20 mg of the compound of Formula (A) was selected, with successive dose-finding groups set as 20 mg, 50 mg, 100 mg, 200 mg, 300 mg, and 400 mg. The administration regimen included once-daily single-dose administration (with a 7-day washout period) and multiple-dose administration (continuous administration for 21 days, 28 days as one cycle, treatment continued until intolerable toxicity, disease progression, or subject withdrawal).
The dose-expansion phase was initiated after the completion of the dose-finding phase. Based on the results of dose escalation, the dosage for the dose-expansion group was determined, with oral administration once daily (continuous administration for 21 days, 28 days as one cycle, and treatment will be continued until intolerable toxicity, disease progression, or subject withdrawal).
1) Safety and Tolerability: Maximum Tolerated Dose (MTD) and Dose-Limiting Toxicity (DLT); 2) PK Indicators: See Tables 13 and 14 below; 3) Efficacy Indicators: Objective Response Rate (ORR), Disease Control Rate (DCR), Duration of Response (DOR), and Progression-Free Survival (PFS). Table 13. PK Indicators of the compound of Formula (A) monotherapy in the dose-finding phase

[1] = Multiple Doses, n=8, dose-expansion phase
[2] = human, in vivo, oral, Single Dose, n=10, dose-finding phase

**Q.** For `CC(C)NC[C@@H](C(=O)N1CCN(c2ncnc3c2[C@H](C)CC(=O)N3)[C@H]2C[C@H]21)c1ccc(Cl)cc1` [The compound of Formula (A), (R)-4-((1S,6R)-5-((S)-2-(4-chlorophenyl)-3-(isopropylamino)propanoyl)-2,5-diazabicyclo[4.1.0]heptan-2-yl)-5-methyl-5,8-dihydropyrido[2,3-d]pyrimidin-7(6H)-one], which CLss/F [1] is on record?
**A.** 155.88 ± 81.87 L/h

**Q.** What about the “Cav,ss” value [1] of the same compound?
**A.** 131.73 ± 64.21 ng/mL

**Q.** And the “Cmin,ss” value [1]?
**A.** 33.76 ± 14.66 ng/mL

**Q.** And the “Tmax,ss” value [1]?
**A.** 3.00 [0,6.00] h

**Q.** And the CL/F (Single Dose, n=10, dose-finding phase)?
**A.** 186.378 ± 99.471 L/h

**Q.** And the half-life (human, in vivo, oral, Multiple Doses, n=8, dose-expansion phase)?
**A.** 12.9 ± 4.19 h

**Q.** What about the AUC(0-t) (human, in vivo, oral, Multiple Doses, n=8, dose-expansion phase, read-out: AUC0-t,ss) of the same compound?
**A.** 3530 ± 1770 ng·h/mL

**Q.** What about the Cmax (human, in vivo, oral, Multiple Doses, n=8, dose-expansion phase, read-out: Cmax,ss) of the same compound?
**A.** 462 ± 245 ng/mL

**Q.** What about the Vd/F (human, in vivo, oral, Multiple Doses, n=8, dose-expansion phase, read-out: Vss/F) of the same compound?
**A.** 2880 ± 1670 L

**Q.** And the half-life [2]?
**A.** 7.22 ± 1.91 h

**Q.** What about the AUC(0-t) (human, in vivo, oral, Single Dose, n=10, dose-finding phase, read-out: AUC0-t) of the same compound?
**A.** 2380 ± 1160 ng·h/mL

**Q.** What about the Cmax (human, in vivo, oral, Single Dose, n=10, dose-finding phase, read-out: Cmax) of the same compound?
**A.** 392 ± 178 ng/mL

**Q.** And the Vd/F (human, in vivo, oral, Single Dose, n=10, dose-finding phase, read-out: Vz/F)?
**A.** 1920 ± 1000 L

**Q.** What about the AUC (human, in vivo, oral, Multiple Doses, n=8, dose-expansion phase, read-out: AUC0-τ) of the same compound?
**A.** 3160 ± 1540 ng·h/mL

**Q.** And the Tmax [2]?
**A.** 3 h
